Target: T1, CDK8/cyclin C (Homo sapiens, UniProt P49336)
T1 construct: purchased Thermo Fisher Scientific (Life Technologies) SelectScreen
Test: SelectScreen LanthaScreen
Format: binding
Details: 1 µM
Method: The in vitro kinase selectivity of NU5455 was determined using the SelectScreen Broad Assay Panel (Thermo Fisher Scientific) involving activity and binding assays (Supplemental Table 1). […] Class IA PI3Ks were measured using the p85α subunit.
Kinase [ATP] % Assay Kinase [ATP] % Assay Kinase [ATP] % Assay Kinase [ATP] % Assay
DNA-PK Km app 98.3 Z LATS2 n/a 4.7 L KIT D820E n/a 1.3 L GSK3B (GSK3 beta) Km app -2.5 Z
PIK3C3 (hVPS34) Km app 85.9 A PRKCZ (PKC zeta) Km app 4.7 Z GRK1 n/a 1.3 L BMPR2 n/a -2.5 L
PIK3C2B (PI3K-C2 beta) 10 28.9 A FGFR1 Km app 4.7 Z BRSK2 n/a 1.2 L CDC42 BPB (MRCKB) Km app -2.5 Z
SNF1LK2 Km app 26.6 Z MINK1 Km app 4.6 Z NUAK1 (ARK5) Km app 1.2 A AMPK (A2/B2/G2) n/a -2.6 L
HCK Km app 18.0 Z CSF1R (FMS) Km app 4.3 Z CDK9/cyclin K n/a 1.0 L PRKG1 Km app -2.7 Z
NEK2 Km app 17.8 Z CSNK1G3 (CK1 gamma 3) Km app 4.2 Z NUAK2 n/a 1.0 L KIT T670E n/a -2.8 L
ALK Km app 17.3 Z STK32C (YANK3) n/a 4.2 L CDK2/cyclin O n/a 0.9 L ERBB4 (HER4) Km app -2.8 Z
FGFR3 K650M n/a 16.5 L STK22D (TSSK1) Km app 4.2 Z CAMKK2 (CaMKK beta) n/a 0.9 L PLK4 n/a -2.8 L
SIK3 n/a 16.1 L TAOK3 (JIK) n/a 4.2 L FGFR3 Km app 0.9 Z GRK7 Km app -3.0 Z
LYN A Km app 15.2 Z RPS6KA4 (MSK2) Km app 4.2 Z ULK2 n/a 0.9 L MAPKAPK2 Km app -3.1 Z
BMPR1B (ALK6) n/a 14.5 L PTK2B (FAK2) Km app 4.2 Z KIT D816V n/a 0.9 L FGFR4 Km app -3.1 Z
INSRR (IRR) Km app 14.1 Z CLK2 Km app 4.1 Z CAMK1 (CaMK1) 10 0.8 A CASK n/a -3.1 L
PLK2 Km app 14.1 Z STK24 (MST3) Km app 4.1 Z PTK6 (Brk) Km app 0.7 Z GRK5 Km app -3.2 Z
PRKACA (PKA) Km app 14.0 Z CAMK1D (CaMKI delta) Km app 4.1 Z CAMK2B (CaMKII beta) Km app 0.7 Z EGFR (ErbB1) T790M Km app -3.3 Z
EIF2AK2 (PKR) n/a 13.3 L INSR Km app 4.1 Z ACVR1 (ALK2) n/a 0.7 L PAK4 Km app -3.3 Z
PRKX Km app 12.5 Z IRAK1 Km app 4.0 A ABL1 H396P n/a 0.6 L DAPK3 (ZIPK) Km app -3.4 Z
FGR Km app 12.1 Z SRC N1 Km app 3.9 Z MERTK (cMER) A708S n/a 0.6 L RET M918T n/a -3.5 L
CLK1 Km app 11.7 Z SRPK2 Km app 3.9 Z MAPKAPK5 (PRAK) Km app 0.6 Z PRKCQ (PKC theta) Km app -3.7 Z
MARK3 Km app 11.4 Z RPS6KA6 (RSK4) Km app 3.8 Z AKT1 (PKB alpha) Km app 0.5 Z CAMKK1 (CAMKKA) n/a -3.8 L
PDGFRB (PDGFR beta) Km app 11.0 Z GRK6 Km app 3.7 Z NTRK3 (TRKC) Km app 0.4 Z FLT3 D835Y Km app -3.9 Z
PRKCN (PKD3) Km app 10.7 Z PKN1 (PRK1) Km app 3.6 Z ZAP70 Km app 0.3 Z ROCK2 Km app -4.1 Z
STK16 (PKL12) n/a 10.5 L MAP3K8 (COT) 100 3.5 Z CSNK1A1 (CK1 alpha 1) Km app 0.3 Z CHUK (IKK alpha) Km app -4.2 A
FES (FPS) Km app 10.4 Z FLT4 (VEGFR3) Km app 3.5 Z MYLK (MLCK) n/a 0.2 L AXL Km app -4.2 Z
ABL1 Km app 10.4 Z GRK4 Km app 3.5 Z MKNK2 (MNK2) n/a 0.2 L PIM2 Km app -4.3 Z
MUSK Km app 10.3 Z FRK (PTK5) Km app 3.4 Z AMPK (A1/B1/G3) n/a 0.2 L PAK1 Km app -4.4 Z
MAPK1 (ERK2) Km app 10.1 Z FYN A n/a 3.3 L MAP3K2 (MEKK2) n/a 0.1 L BMPR1A (ALK3) n/a -4.4 L
BRAF 100 9.9 Z CDK1/cyclin A2 n/a 3.3 L CDK8/cyclin C n/a 0.1 L STK4 (MST1) Km app -4.4 Z
IGF1R Km app 9.7 Z KIT V559D T670I n/a 3.1 L MARK2 Km app 0.1 Z PRKCH (PKC eta) Km app -4.6 Z
MAPK14 (p38 alpha) Km app 9.7 Z SPHK2 10 3.1 A ICK n/a 0.0 L SGKL (SGK3) Km app -4.6 Z
LCK Km app 9.6 Z FGFR3 G697C n/a 3.1 L FGFR2 Km app 0.0 Z PI4KB (PI4K beta) Km app -4.7 A
MAPK11 (p38 beta) Km app 9.5 Z RIPK2 n/a 3.1 L AKT2 (PKB beta) Km app 0.0 Z PRKCE (PKC epsilon) Km app -4.9 Z
SRC Km app 9.5 Z PAK6 Km app 3.0 Z EPHB2 Km app -0.1 Z PHKG1 Km app -5.0 Z
CHEK1 (CHK1) Km app 9.3 Z LYN B Km app 3.0 Z TGFBR2 n/a -0.1 L PDGFRA D842V Km app -5.0 Z
CAMK2D (CaMKII delta) Km app 9.3 Z DAPK2 n/a 2.9 L TEK (Tie2) Km app -0.1 Z PRKG2 (PKG2) Km app -5.1 Z
PLK1 Km app 9.2 Z EPHA4 Km app 2.9 Z AURKA (Aurora A) Km app -0.1 Z TYRO3 (RSE) Km app -5.1 Z
RET Y791F Km app 9.2 Z PIK3CG (p110 gamma) Km app 2.9 A KIT D816H n/a -0.2 L TAOK2 (TAO1) Km app -5.1 Z
FLT3 Km app 9.1 Z HIPK1 (Myak) Km app 2.8 Z KIT N822K n/a -0.2 L EPHB4 Km app -5.3 Z
MAPK10 (JNK3) 100 9.0 Z ADRBK2 (GRK3) Km app 2.8 Z PRKACG (PRKAC gamma) n/a -0.2 L AURKC (Aurora C) Km app -5.4 Z
CSNK2A2 (CK2 alpha 2) Km app 8.7 Z STK17B (DRAK2) n/a 2.7 L TEK (TIE2) Y1108F n/a -0.3 L JAK1 Km app -5.7 Z […]

T1 sequence (P49336 whole entry): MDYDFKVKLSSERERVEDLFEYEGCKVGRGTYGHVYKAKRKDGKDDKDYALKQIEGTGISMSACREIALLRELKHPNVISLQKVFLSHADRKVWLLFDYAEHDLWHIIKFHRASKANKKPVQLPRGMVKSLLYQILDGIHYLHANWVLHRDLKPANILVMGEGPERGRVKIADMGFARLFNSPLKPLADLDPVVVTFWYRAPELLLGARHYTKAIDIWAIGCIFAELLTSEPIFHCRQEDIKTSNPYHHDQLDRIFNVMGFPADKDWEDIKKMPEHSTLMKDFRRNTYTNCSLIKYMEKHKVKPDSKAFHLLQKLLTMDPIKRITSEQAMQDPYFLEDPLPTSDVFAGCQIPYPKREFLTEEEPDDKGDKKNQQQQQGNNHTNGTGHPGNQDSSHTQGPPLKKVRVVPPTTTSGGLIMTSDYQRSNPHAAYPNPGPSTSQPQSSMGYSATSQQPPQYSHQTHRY
T1 sequence (P24863 whole entry partner): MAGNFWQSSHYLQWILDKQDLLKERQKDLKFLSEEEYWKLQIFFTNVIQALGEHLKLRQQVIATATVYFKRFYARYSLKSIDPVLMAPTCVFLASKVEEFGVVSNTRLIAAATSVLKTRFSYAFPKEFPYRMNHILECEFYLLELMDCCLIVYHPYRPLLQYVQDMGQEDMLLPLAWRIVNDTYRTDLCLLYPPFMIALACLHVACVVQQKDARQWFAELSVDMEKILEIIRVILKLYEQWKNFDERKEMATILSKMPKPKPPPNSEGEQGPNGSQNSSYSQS

CN(C(=O)CN1CCOCC1)c1ccc2sc3c(-c4cccc5c(=O)cc(N6CC7CCC(C6)O7)oc45)cccc3c2c1 [NU5455]
% displacement: 0.1%

Reference: publication PMC6934184, “Selective DNA-PKcs inhibition extends the therapeutic index of localized radiotherapy and chemotherapy” (The Journal of Clinical Investigation, 2019)
